Measurements reported in patent publication US10570155B2, “Imidazooxazole derivative having antitumor effect, and pharmaceutical composition including same” (KOREA INSTITUTE OF SCIENCE AND TECHNOLOGY, priority 2016, dated 2020).

Tests used:
V600E-B-RAF = V600E-B-RAF (Homo sapiens (Human), UniProt P15056, V600E); test: Protein kinase enzymatic activity (Reaction Biology kinase hotspot, 33P-ATP); assay type: biochemical; settings: read-out: Inhibitory effect against kinase activity, V600E-B-RAF (IC50)
SK-MEL-2 = test: NCI cancer cell line panel screening (SRB), melanoma cell line SK-MEL-2; assay type: cell-based, human; settings: Homo sapiens, read-out: IC50 against melanoma cell line in vitro
Description: (§1) According to the standard protocol (http://dtp.nci.nih.gov/dtpstandard/dwindex/index.isp) of the US National Cancer Institute (NCI) (www.dtp.nci.nih.gov), screening of a cancer cell line panel was performed. […] For a general screening experiment, cells were inoculated in 96-well microtiter plates in 100 μl at a plating density ranging from 5000 cells/well to 40,000 cells/well depending on the doubling time of individual cell lines. After cell inoculation, the microtiter plates were incubated at 37° C., 5% CO2, 95% air, and 100% relative humidity for 24 hours prior to addition of test compounds. 24 hours later, two plates of each cell line were fixed in situ with trichloroacetic acid (TCA) to measure the cell population for each cell line at the time of test compound addition (Tz). Test compounds were solubilized in dimethyl sulfoxide at 400-fold the intended final maximum test concentration, and stored frozen prior to use. At the time of compound addition, an aliquot of frozen concentrate was thawed and diluted to twice the intended final maximum test concentration with a complete medium containing 50 μg/ml of gentamicin. Additional four concentration of 10-fold or ½ log serial dilutions were made to provide a total of five compound concentrations plus control. Aliquots of 100 μl of these different compound dilutions were added to appropriate microtiter wells already containing 100 μl of medium, resulting in the required final compound concentrations.
(§2) Following compound addition, the plates were incubated for additional 48 hours at 37° C., 5% CO2, 95% air, and 100% relative humidity. For adherent cells, the assay was terminated by the addition of cold TCA. Cells were fixed in situ by the gentle addition of 50 μl of cold 50% (w/v) TCA (final concentration, 10% TAC) and incubated at 4° C. for 60 minutes. The supernatant was discarded, and the plates were washed five times with tap water and air-dried. A sulforhodamine B (SRB) solution (100 μl) at 0.4% (w/v) in 1% acetic acid was added to each well, and plates were incubated at room temperature for 10 minutes. After staining, unbound dye was removed by washing five times with 1% acetic acid and the plates were air-dried. […] For suspension cells, the methodology was the same except that the assay was terminated by fixing settled cells at the bottom of the wells by gently adding 50 μl of 80% TCA (final concentration, 16% TCA). Using the seven absorbance measurements [time zero (Tz), control growth (C), and test growth rate in the presence of compound at the five concentration levels (Ti)], the growth percentage was calculated at each of the compound concentration levels. Growth inhibition percentage was calculated as follows: [(Ti−Tz)/(C−Tz)]×100 for concentrations for which Ti>/=Tz [(Ti−Tz)/Tz]×100 for concentrations for which Ti<Tz.

LOX IMVI = test: NCI cancer cell line panel screening (SRB), melanoma cell line LOX IMVI; assay type: cell-based, human; settings: Homo sapiens, read-out: IC50 against melanoma cell line in vitro
Description: as §1, §2

[1] = tested on: A375P cell line xenograft; test: Tumor-inhibitory effects in melanoma mouse xenograft model; assay type: in vivo, nude mice; parameters: Tumor size: unit not given here
Description: In this experiment, A375P cell line which is a human-derived malignant melanoma cell line was subcutaneously administered to nude mice to prepare xenograft models, and the test material (compound 2II) was administered to the xenograft models to evaluate anti-cancer effects (GI: an excipient control group, G2: a group administered with 20 mg/kg/day of the test material, and G3: a group administered with 50 mg/kg/day of the test material).

SK-MEL-28 = test: NCI cancer cell line panel screening (SRB), melanoma cell line SK-MEL-28; assay type: cell-based, human; settings: Homo sapiens, read-out: IC50 against melanoma cell line in vitro
Description: as §1, §2

[2] = 20 and 50 mg/kg/day, intravenous, twice per week for 3 weeks

V600E-B-RAF, sequence (P15056 whole entry V600E): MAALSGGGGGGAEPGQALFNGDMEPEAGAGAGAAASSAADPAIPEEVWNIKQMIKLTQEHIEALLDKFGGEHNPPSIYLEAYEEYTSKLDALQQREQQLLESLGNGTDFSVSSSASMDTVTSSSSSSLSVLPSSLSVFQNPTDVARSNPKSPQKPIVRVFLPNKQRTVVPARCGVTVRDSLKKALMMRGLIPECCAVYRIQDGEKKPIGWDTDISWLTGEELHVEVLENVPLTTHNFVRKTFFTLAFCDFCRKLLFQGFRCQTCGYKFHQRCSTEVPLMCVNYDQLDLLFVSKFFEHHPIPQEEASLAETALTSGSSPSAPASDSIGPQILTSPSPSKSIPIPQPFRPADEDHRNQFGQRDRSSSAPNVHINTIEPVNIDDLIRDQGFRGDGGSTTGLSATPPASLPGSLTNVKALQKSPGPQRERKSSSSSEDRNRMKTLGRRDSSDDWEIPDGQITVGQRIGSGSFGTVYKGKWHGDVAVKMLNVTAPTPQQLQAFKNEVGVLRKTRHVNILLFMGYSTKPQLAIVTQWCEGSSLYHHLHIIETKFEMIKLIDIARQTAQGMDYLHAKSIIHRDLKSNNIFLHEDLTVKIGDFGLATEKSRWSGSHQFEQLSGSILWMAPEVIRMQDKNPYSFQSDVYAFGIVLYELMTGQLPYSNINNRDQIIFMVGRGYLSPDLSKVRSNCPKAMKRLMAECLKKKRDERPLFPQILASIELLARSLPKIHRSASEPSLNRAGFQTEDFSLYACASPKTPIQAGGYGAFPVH

Structure (SMILES): CCN1CCN(CCNc2nccc(-c3c(-c4cccc(O)c4)nc4occn34)n2)S1(=O)=O [2II, 2-Ethyl-5-(2-((4-(6-(3-hydroxylphenyl)imidazo[2,1-b]oxazol-5-yl)pyrimidin-2-yl)amino)ethyl)-1,2,5-thiadiazolidine 1,1-dioxide]
- IC50 (V600E-B-RAF): 0.00067 µM
- IC50 (SK-MEL-2): 2.6 µM
- IC50 (LOX IMVI): 2.53 µM
- General symptoms and deaths [1, 2]: no deaths or no abnormalities in general symptoms were observed
- Increase of the tumor size [1, 2]: inhibited in a dose-dependent manner
- Tumor size, difference between experimental groups ([1]; G1, G2 (20 mg/kg/day), G3 (50 mg/kg/day)): no significant difference between all experimental groups
- Tumor size ([1]; G2, 20 mg/kg/day, day 0): 145.08 ± 20.85
- Tumor size ([1]; G2, 20 mg/kg/day, day 4): 271.88 ± 60.05
- Tumor size ([1]; G2, 20 mg/kg/day, day 7): 556.42 ± 161.21
- Tumor size ([1]; G2, 20 mg/kg/day, day 11): 978.91 ± 258.24
- Tumor size ([1]; G2, 20 mg/kg/day, day 14): 1711.5 ± 631.79
- Tumor size ([1]; G2, 20 mg/kg/day, day 18): 2438.5 ± 962.99
- Tumor size ([1]; G2, 20 mg/kg/day, day 21): 3200.6 ± 944.99
- Body weight gain compared with excipient control group ([1]; G3, 50 mg/kg/day): significantly low
- Body weight compared with control group (G1) ([1]; G3, 50 mg/kg/day, at 14 days and 21 days after administration): significantly low
- Tumor size ([1]; G3, 50 mg/kg/day, day 0): 149.36 ± 20.91
- Tumor size ([1]; G3, 50 mg/kg/day, day 4): 276.08 ± 86.17
- Tumor size ([1]; G3, 50 mg/kg/day, day 7): 442.88 ± 73.08
- Tumor size ([1]; G3, 50 mg/kg/day, day 11): 754.16 ± 211.86
- Tumor size ([1]; G3, 50 mg/kg/day, day 14): 1174.7 ± 411.22
- Tumor size ([1]; G3, 50 mg/kg/day, day 18): 1543.9 ± 411.21
- Tumor size ([1]; G3, 50 mg/kg/day, day 21): 2063.1 ± 657.93
- IC50 (SK-MEL-28): 0.13 µM
